Laboratory results from patent publication US5462861A, “Method for improving enzyme activities with noble gases” (American Air Liquide, Chicago Research Center, priority 1993, dated 1995).

Assays:
isomerase enzymes = assay: Isomerases, effects for the class; type: biochemical
Description: Solution preparation: Optimized w/v solutions are prepared by diluting the enzyme (units/ml) and the substrate (μg/ml) in appropriate buffer (optimized pH and molarity for enzymes). The solutions are used for gas experiments at once to avoid loss of activity. Various enzyme and substrate concentrations and inhibitors may be employed. Physical parameters are varied as required.
Preparation of samples: Cuvets are filled with 2 ml of substrate solution by means of a gas-tight syringe. Gas-tight serum vials are filled with enzyme and solvent. Sufficient gas is consecutively bubbled in the cuvets and serum vials, with a 1-hr wait between injections to maximize equilibration of gas. […] The amount of gas used has been measured sufficient to saturate the solution required.
Spectrophotometric time-drive, reaction rate, and kinetic analyses: cuvets and serum vials are saturated with gas 40 minutes before the run. […] Changes in the rate or final equilibrium of the reaction versus ambient air are recorded. […]
In a complete experiment, an enzyme at optimal pH and buffering salt concentration is reacted with 5 substrate concentrations in solution with noble gas at 1 atm. […] The reaction is monitored colorimetrically in a scanning spectrophotometer in real time, and the signals are treated mathematically to obtain rate and yield differences. […]

β-glucosidase = assay: Kinetic analyses, β-glucosidase; type: biochemical; set-up: Rates G5 / Rates G5, Calculated: unit not given beside the values
Description: Absorbance curve data as previously exemplified reveal differences in enzymatic activity under different gas atmospheres both in terms of yield and in terms of rate. Yield can be calculated after equilibrium is reached by comparative curve differencing, and through formal linearization and calculation--which are also necessary for rate calculations. Rate differences are calculated using commercially available computer programs (ENZFITTER, GRAFIT, ENZPACK, PEAKFIT) which transform the initial uv/vis absorbance data curve (in these examples, a power curve) into straight lines (linear regression of power curve). These lines may be expressed as a mathematical equation in which the slope is approximately the rate, and the limit Y-intercept is approximately the yield. […] The examples and figures described below represent these steps in exemplary form.
Table 1 illustrates Michaelis-Menten enzyme kinetics calculations of Vmax and Km, and the rates for each reaction. Vmax is the limiting rate, Km is the Michaelis-Menten constant.
FIG. 46 and Table 2 illustrate the same as FIG. 45 and Table 1, however, for xenon reactions. It is readily apparent that the Vmax and Km for xenon are larger.
FIG. 47, Table 3, FIG. 48 and Table 4 illustrate the first-order power curve regression rate linear transformations for the above air and xenon gassed reactions, showing an approximation to the Michaelis-Menten data, wherein the Xe/Air rate relationship is in the same ratio as above.
FIG. 49, FIG. 50 and Table 5 illustrate the same first-order rate approximation regression linearizations for all gases studied in this run.

β-D-Glucosidase = target: T1, β-D-Glucosidase (Caldicellulosiruptor saccharolyticus, UniProt P10482); assay: Immobilized enzymes: β-D-glucosidase under air or xenon; type: biochemical, Caldocellum saccharolyticum; details: 25° C., FIG. 44
T1 construct: purchased Sigma G-0898; host or cells: E. coli
Description: Theory: Same gases effects on either free or immobilized enzymes.
β-D-Glucosidase (SIGMA) No. G-0898)
From Caldocellum saccharolyticum: Recombinant (pfs)
Soln C1: β-D-Glucosidase solution in Na Phos. buffer pH 6.6 (25 ° C.) (2.18 Units/ml)
(For insoluble enzymes lyophilized powders, SIGMA recommends to suspend the required amount to 5-10 mg solid/ml H2 O and to allow brief hydration). We allowed a brief hydration (until solution appears)
Sample: 2 ml Soln B+0.5 ml Soln C1
CPRG: β-Glucosidase: 25° C.

[1] = 1st order rate equation, [S] = 60 micrograms/ml, Table 4

T1 sequence (P10482 whole entry): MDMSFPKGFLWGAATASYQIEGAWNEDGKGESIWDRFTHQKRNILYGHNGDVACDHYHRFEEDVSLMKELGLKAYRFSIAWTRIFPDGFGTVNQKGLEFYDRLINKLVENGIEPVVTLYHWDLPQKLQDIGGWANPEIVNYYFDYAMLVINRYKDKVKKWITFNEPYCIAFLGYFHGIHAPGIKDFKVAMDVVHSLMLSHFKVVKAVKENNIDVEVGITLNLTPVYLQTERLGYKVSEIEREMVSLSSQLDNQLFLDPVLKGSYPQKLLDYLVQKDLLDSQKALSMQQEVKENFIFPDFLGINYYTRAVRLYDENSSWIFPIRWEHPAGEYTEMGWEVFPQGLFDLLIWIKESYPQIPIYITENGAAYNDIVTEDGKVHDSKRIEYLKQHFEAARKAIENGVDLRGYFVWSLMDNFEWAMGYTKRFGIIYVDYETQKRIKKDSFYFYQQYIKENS

SMILES: [Ar] [Ar, argon]
- effect on isomerases (isomerase enzymes): can be induced to inhibit enzyme activity at higher temperatures

SMILES: [Xe] [Xe, xenon]
- Vmax and Km compared with air (β-glucosidase): larger
- Limit (β-glucosidase; [1]): 0.8382
- Rate constant (β-glucosidase; [1]): 0.0045
- V max (β-glucosidase; Michaelis-Menten, Gas 5: Xenon, Table 2): 0.0028
- Rates G5 (β-glucosidase; [S] 20.0000): 0.0032
- Rates G5, Calculated (β-glucosidase; [S] 20.0000): 0.0032
- Rates G5 (β-glucosidase; [S] 40.0000): 0.0029
- Rates G5, Calculated (β-glucosidase; [S] 40.0000): 0.0029
- Rates G5 (β-glucosidase; [S] 60.0000): 0.0027
- Rates G5, Calculated (β-glucosidase; [S] 60.0000): 0.0029
- Rates G5 (β-glucosidase; [S] 80.0000): 0.0030
- Rates G5, Calculated (β-glucosidase; [S] 80.0000): 0.0029
- Rates G5 (β-glucosidase; [S] 100.0000): 0.0029
- Rates G5, Calculated (β-glucosidase; [S] 100.0000): 0.0028
- effect on β-glucosidase reaction (β-glucosidase; power curve analysis / linearization, FIGS. 49 and 50): significant enhancement
- effect on β-glucosidase in immobilized form (β-D-Glucosidase): enhancing
